Test results from patent US8580814B2, “Methods of using (+)-1,4-dihydro-7-[(3S,4S)-3-methoxy-4-(methylamino)-1-pyrrolidinyl]-4- oxo-1-(2-thiazolyl)-1,8-naphthyridine-3-carboxylic acid for treatment of cancer” (priority 2006, dated 2013).
“And” between values parts separate entries of the source, which are not always exact repeats. Equal entries are not always repeated.

Assays:
DNAPKcs(−/−) (MO59J) = experiment: Timing of apoptosis (caspase-3 activation); assay type: cell-based; details: Cell Line DNAPKcs(−/−); dosed at 30 fold above the EC50 for cytotoxicity
refractory solid tumors = experiment: Clinical activity in patients with advanced solid tumors; assay type: in vivo, human; design: key to Best Response: partial response (PR); stable disease SD; Partial/Minor Responses (PR/MR); details: for Iliac node: Baseline 5.5; for RMLL Lung / Rectosigmoid: Baseline 2.5; for RML Lung: Baseline 3.9; for RUL Lung: Baseline 4.7; for Liver met: Baseline 7.4
Protocol: The administered dose of SNS-595 can be delivered as a single dose such as, for example, an IV push of 10-15 minutes duration (e.g. a single bolus injection) or over time such as, for example, a 24-hour period (e.g., continuous infusion over time or divided bolus doses over time) and is repeated as necessary, for example, until the patient experiences stable disease or regression, or until the patient experiences disease progression or unacceptable toxicity. For example, stable disease for solid tumors generally means that the perpendicular diameter of measurable lesions has not increased by 25% or more from the last measurement. See e.g., Response Evaluation Criteria in Solid Tumors (RECIST) Guidelines, Journal of the National Cancer Institute 92(3): 205-216 (2000). Stable disease or lack thereof is determined by methods known in the art such as evaluation of patient symptoms, physical examination, visualization of the tumor that has been imaged using X-ray, CAT, PET, or MRI scan and other commonly accepted evaluation modalities.
SNS-595 was administered to patients with advanced solid cancers as an IV infusion over 10 minutes on 2 schedules. In the first schedule (A), a weekly dose of SNS-595 was administered for three weeks followed by at least 7 days off (qwk×3). In the second schedule (B), a dose of SNS-595 was administered once every three weeks (q3wk).
In both schedules, the starting dose of SNS-595 was 3 mg/m^2, and doses were escalated by sequential cohorts of 3. The doses were doubled until the first related adverse event at or above Grade 2 or until the first abnormal lab value. The doses were then escalated by a modified Fibonacci schema.
In study A, 21 patients (9 male, 12 female) were treated in 6 cohorts (dose range 3-24 mg/m^2/wk). In study B, 41 (25 male, 16 female) patients were treated in 9 cohorts (dose range 3-75 mg/m^2/wk). The median ages were 61 yrs (Study A) and 59 yrs (Study B), sex 12F/9M (Study A), 16F/25M (Study B), all patients had baseline European Cooperative Oncology Group Performance Status (ECOG PS) 0-2. Patient eligibility included refractory solid tumors and adequate organ function.

[1] = both studies, advanced solid cancers
[2] = initial dosage 3 mg/m^2, q3wk, Lung
[3] = initial dosage 6 mg/m^2, q3wk, Renal Cell
[4] = initial dosage 6 mg/m^2, qwk x3, Renal Cell
[5] = initial dosage 12 mg/m^2, q3wk, Lung
[6] = initial dosage 12 mg/m^2, qwk x3, Leiomyosarcoma
[7] = initial dosage 12 mg/m^2, qwk x3, Melanoma
[8] = initial dosage 15 mg/m^2, qwk x3, Mesothelioma (two patients)
[9] = initial dosage 15 mg/m^2, qwk x3, Nasopharyngeal
[10] = initial dosage 24 mg/m^2, q3wk, Adenocarcinoma (unknown origin)
[11] = initial dosage 24 mg/m^2, qwk x3, Salivary Gland
[12] = initial dosage 36 mg/m^2, q3wk, Colon
[13] = initial dosage 36 mg/m^2, q3wk, Ovarian
[14] = initial dosage 48 mg/m^2, q3wk, Lung
[15] = initial dosage 48 mg/m^2, q3wk, Ovarian (two patients)
[16] = initial dosage 60 mg/m^2, q3wk, Neuroendocrine
[17] = initial dosage 60 mg/m^2, q3wk, Ovarian
[18] = initial dosage 75 mg/m^2, q3wk, Müllerian

CN[C@H]1CN(c2ccc3c(=O)c(C(=O)O)cn(-c4nccs4)c3n2)C[C@@H]1OC [SNS-595, (+)-1,4-dihydro-7-[(3S,4S)-3-methoxy-4-(methylamino)-1-pyrrolidinyl]-4-oxo-1-(2-thiazolyl)-1,8-naphthyridine-3-carboxylic acid]
Timing of apoptosis: fraction of cell cycle to achieve 50% maximal caspase-3 activation (DNAPKcs(−/−) (MO59J)): 0.25
P-aortic node (refractory solid tumors; PR patient, Ovarian, C2, Baseline 1.7): 1.6 cm
Aortic node (refractory solid tumors; PR patient, Ovarian, C2, Baseline 2.4): 2.0 cm
Iliac node (refractory solid tumors; PR patient, Ovarian, C2): 5.0 cm
CA125 (refractory solid tumors; PR patient, Ovarian, C2, Baseline 467): 272 U/mL
P-aortic node (refractory solid tumors; PR patient, Ovarian, C4, Baseline 1.7): 1.5 cm
Aortic node (refractory solid tumors; PR patient, Ovarian, C4, Baseline 2.4): 2.2 cm
Iliac node (refractory solid tumors; PR patient, Ovarian, C4): 4.7 cm
CA125 (refractory solid tumors; PR patient, Ovarian, C4, Baseline 467): 176 U/mL
P-aortic node (refractory solid tumors; PR patient, Ovarian, C6, Baseline 1.7): 1.3 cm
Aortic node (refractory solid tumors; PR patient, Ovarian, C6, Baseline 2.4): 2.0 cm
Iliac node (refractory solid tumors; PR patient, Ovarian, C6): 3.9 cm
CA125 (refractory solid tumors; PR patient, Ovarian, C6, Baseline 467): 120 U/mL
RMLL Lung (refractory solid tumors; SD (MR) patient, Müllerian, C2): 2.5 cm
RML Lung (refractory solid tumors; SD (MR) patient, Müllerian, C2): 3.9 cm
RUL Lung (refractory solid tumors; SD (MR) patient, Müllerian, C2): 4.5 cm
RMLL Lung (refractory solid tumors; SD (MR) patient, Müllerian, C4): 2.5 cm
RML Lung (refractory solid tumors; SD (MR) patient, Müllerian, C4): 3.7 cm
RUL Lung (refractory solid tumors; SD (MR) patient, Müllerian, C4): 4.5 cm
RMLL Lung (refractory solid tumors; SD (MR) patient, Müllerian, C6): 2.6 cm
RML Lung (refractory solid tumors; SD (MR) patient, Müllerian, C6): 2.4 cm
RUL Lung (refractory solid tumors; SD (MR) patient, Müllerian, C6): 5.0 cm
Left upper lobe nodule (refractory solid tumors; SD (MR) patient, Nasopharyngeal, C2, Baseline 1.1): 1.0 cm
Rt upper lobe nodule 2 (refractory solid tumors; SD (MR) patient, Nasopharyngeal, C2, Baseline 1.5): 1.3 cm
Lingular nodule (refractory solid tumors; SD (MR) patient, Nasopharyngeal, C2, Baseline 1.6): 1.5
Rt upper lobe nodule 1 (refractory solid tumors; SD (MR) patient, Nasopharyngeal, C2, Baseline 2.3): 1.5 cm
Aortic node (refractory solid tumors; SD (MR) patient, Ovarian (first), C2, Baseline 1.7): 1.5 cm
P-aortic node (refractory solid tumors; SD (MR) patient, Ovarian (first), C2, Baseline 1.8): 1.1 cm
Liver met (refractory solid tumors; SD (MR) patient, Ovarian (first), C2): 6.9 cm
CA125 (refractory solid tumors; SD (MR) patient, Ovarian (first), C2, Baseline 567): 811 U/mL
Aortic node (refractory solid tumors; SD (MR) patient, Ovarian (first), C4, Baseline 1.7): 1.2 cm
P-aortic node (refractory solid tumors; SD (MR) patient, Ovarian (first), C4, Baseline 1.8): 1.1 cm
Liver met (refractory solid tumors; SD (MR) patient, Ovarian (first), C4): 5.7 cm
CA125 (refractory solid tumors; SD (MR) patient, Ovarian (first), C4, Baseline 567): 419 U/mL
Aortic node (refractory solid tumors; SD (MR) patient, Ovarian (first), C6, Baseline 1.7): 1.8 cm
P-aortic node (refractory solid tumors; SD (MR) patient, Ovarian (first), C6, Baseline 1.8): 1.2 cm
Liver met (refractory solid tumors; SD (MR) patient, Ovarian (first), C6): 5.7 cm
CA125 (refractory solid tumors; SD (MR) patient, Ovarian (first), C6, Baseline 567): 274 U/mL
3 mets (refractory solid tumors; SD (MR) patient, Ovarian (second)): 3 mets unchanged
Rectosigmoid (refractory solid tumors; SD (MR) patient, Ovarian (second), C2): 0.0 cm
CA125 (refractory solid tumors; SD (MR) patient, Ovarian (second), C2, Baseline 50): 18 U/mL
Rectosigmoid (refractory solid tumors; SD (MR) patient, Ovarian (second), C4): 0.0 cm
CA125 (refractory solid tumors; SD (MR) patient, Ovarian (second), C4, Baseline 50): 16 U/mL
Rectosigmoid (refractory solid tumors; SD (MR) patient, Ovarian (second), C6): 0.0 cm
CA125 (refractory solid tumors; SD (MR) patient, Ovarian (second), C6, Baseline 50): 15 U/mL
Best Response (refractory solid tumors; Table 11, Müllerian): SD (MR)
Best Response (refractory solid tumors; Table 11, Nasopharyngeal): SD (MR)
Best Response (refractory solid tumors; Table 11, Ovarian (three patients)): SD (MR) and PR
patients that achieved partial responses (refractory solid tumors; [1]): two patients
patients that achieved stable disease for over sixteen weeks (refractory solid tumors; [1]): seventeen patients
Best Response (refractory solid tumors; [2]): SD
Weeks on Therapy (refractory solid tumors; [2]): 18 Weeks
Best Response (refractory solid tumors; [3]): SD
Weeks on Therapy (refractory solid tumors; [3]): 18 Weeks
Best Response (refractory solid tumors; [4]): SD
Weeks on Therapy (refractory solid tumors; [4]): 16 Weeks
Best Response (refractory solid tumors; [5]): SD
Weeks on Therapy (refractory solid tumors; [5]): 53 Weeks
Best Response (refractory solid tumors; [6]): SD
Weeks on Therapy (refractory solid tumors; [6]): 16 Weeks
Best Response (refractory solid tumors; [7]): SD
Weeks on Therapy (refractory solid tumors; [7]): 16 Weeks
Best Response (refractory solid tumors; [8]): PR and SD
Weeks on Therapy (refractory solid tumors; [8]): 28 Weeks and 18 Weeks
Best Response (refractory solid tumors; [9]): SD
Weeks on Therapy (refractory solid tumors; [9]): 16 Weeks
Best Response (refractory solid tumors; [10]): SD
Weeks on Therapy (refractory solid tumors; [10]): 18 Weeks
Best Response (refractory solid tumors; [11]): SD
Weeks on Therapy (refractory solid tumors; [11]): 24 Weeks
Best Response (refractory solid tumors; [12]): SD
Weeks on Therapy (refractory solid tumors; [12]): 33 Weeks
Best Response (refractory solid tumors; [13]): SD
Weeks on Therapy (refractory solid tumors; [13]): 18 Weeks
Best Response (refractory solid tumors; [14]): SD
Weeks on Therapy (refractory solid tumors; [14]): 46 Weeks
Best Response (refractory solid tumors; [15]): PR and SD
Weeks on Therapy (refractory solid tumors; [15]): 24 Weeks and 30 Weeks
Best Response (refractory solid tumors; [16]): SD
Weeks on Therapy (refractory solid tumors; [16]): 58 Weeks
Best Response (refractory solid tumors; [17]): SD
Weeks on Therapy (refractory solid tumors; [17]): 33 Weeks
Best Response (refractory solid tumors; [18]): SD
Weeks on Therapy (refractory solid tumors; [18]): 46 Weeks
stable disease SD, range (refractory solid tumors; study A (qwk×3)): 16-24 wks
patients that achieved partial response (PR) (refractory solid tumors; study A (qwk×3), 21 patients): one patient
patients that achieved stable disease SD (refractory solid tumors; study A (qwk×3), 21 patients): six
patients with PR as best response (refractory solid tumors; study B (q3wk), 41 patients): one PR
patients with SD as best response (refractory solid tumors; study B (q3wk), 41 patients): 11
